Laboratory results from patent publication US8747810B2, “Compositions and methods for imaging tissues, organs and tumors” (President and Fellows of Harvard College, priority 2009, dated 2014).
One block for each compound: values may come before it.

Legend:
B16 melanoma nodules = test: In vivo biodistribution and tumor uptake of 99mTc complexes in C57B16 mice with B16 melanoma nodules; conditions: for mel/blood: melanoma/blood ratio; for mel/liver: melanoma/liver ratio; for mel/lung: melanoma/lung ratio; for mel/spleen: melanoma/spleen ratio
Experimental: The biodistribution data including melanoma/nontumor (M/NT) ratios for selected organs, summarized in Table 1 as percentage injected dose per gram (% ID/g)
To study the tumor uptake of radiolabeled metal complexes, in vivo, biodistribution experiments at 1 h after their administration were carried out in C57B16 male mice with palpable B16 melanoma nodules.

B16F10 melanoma tumors = test: In vivo biodistribution of 99mTc complexes in C57B16 mice bearing B16F10 melanoma tumors; conditions: for mel/blood: melanoma/blood ratio; for mel/liver: melanoma/liver ratio; for mel/lung: melanoma/lung ratio; for mel/spleen: melanoma/spleen ratio
Experimental: To study the tumor uptake of ^99mTc complexes, ^99mTc-Z2-^99mTc-Z4, in vivo biodistribution experiment at 1, 3, 6 hours post intra-venous injection of the ^99mTc-complex were carried out in C57B16 mice bearing B16F10 melanoma tumors. The biodistribution data including melanoma/nontumor (M/NT) ratios for selected organs are summarized in Table 2 as percentage injected dose per gram (% ID/g) (Table 2). […] This is due to washout from no-tumor organs and increased retention in the tumor.

[1] = 3 h postinjection, listed as 99mTc-Z2

blood (B16 melanoma nodules; 1 h postinjection): 1.00 ± 0.46 % ID/g
brain (B16 melanoma nodules; 1 h postinjection): 0.30 ± 0.10 % ID/g
heart (B16 melanoma nodules; 1 h postinjection): 0.82 ± 0.37 % ID/g
kidney (B16 melanoma nodules; 1 h postinjection): 5.53 ± 0.81 % ID/g
liver (B16 melanoma nodules; 1 h postinjection): 12.7 ± 1.54 % ID/g
lung (B16 melanoma nodules; 1 h postinjection): 1.40 ± 0.49 % ID/g
melanoma (tumor uptake) (B16 melanoma nodules; 1 h postinjection): 7.62 ± 0.62 % ID/g
muscle (B16 melanoma nodules; 1 h postinjection): 0.35 ± 0.21 % ID/g
spleen (B16 melanoma nodules; 1 h postinjection): 1.83 ± 0.55 % ID/g
mel/blood (B16 melanoma nodules; 1 h postinjection): 7.6 ± 0.54
mel/liver (B16 melanoma nodules; 1 h postinjection): 0.6 ± 0.09
mel/lung (B16 melanoma nodules; 1 h postinjection): 5.4 ± 0.60
mel/spleen (B16 melanoma nodules; 1 h postinjection): 4.2 ± 0.58
blood (B16 melanoma nodules; 6 h postinjection): 0.32 ± 0.19 % ID/g
brain (B16 melanoma nodules; 6 h postinjection): 0.05 ± 0.02 % ID/g
heart (B16 melanoma nodules; 6 h postinjection): 0.11 ± 0.02 % ID/g
kidney (B16 melanoma nodules; 6 h postinjection): 1.98 ± 0.21 % ID/g
liver (B16 melanoma nodules; 6 h postinjection): 4.08 ± 0.92 % ID/g
lung (B16 melanoma nodules; 6 h postinjection): 0.47 ± 0.21 % ID/g
melanoma (tumor uptake) (B16 melanoma nodules; 6 h postinjection): 3.45 ± 1.2 % ID/g
muscle (B16 melanoma nodules; 6 h postinjection): 0.08 ± 0.01 % ID/g
spleen (B16 melanoma nodules; 6 h postinjection): 0.34 ± 0.10 % ID/g
mel/blood (B16 melanoma nodules; 6 h postinjection): 10.8 ± 1.00
mel/liver (B16 melanoma nodules; 6 h postinjection): 0.9 ± 0.35
mel/lung (B16 melanoma nodules; 6 h postinjection): 7.3 ± 0.98
mel/spleen (B16 melanoma nodules; 6 h postinjection): 10.1 ± 1.11
SMILES: CCN(CC)CC[N+]12CC[S][99Tc-]13(=[O])[S]CC[N]3C(=O)C2 (centres unmarked) [[TcOAADT]-C2—N(Et)2, [^99mTcOAADT]-(CH2)2—N(Et2), reference compound]
tumor uptake and retention (in words) (B16 melanoma nodules; over time): significant washout from the tumor over time

Eyes (B16F10 melanoma tumors; 1 h postinjection): 13.57 ± 2.1 % ID/g
blood (B16F10 melanoma tumors; 1 h postinjection): 0.41 ± 0.08 % ID/g
brain (B16F10 melanoma tumors; 1 h postinjection): 0.13 ± 0.03 % ID/g
heart (B16F10 melanoma tumors; 1 h postinjection): 0.62 ± 0.10 % ID/g
kidney (B16F10 melanoma tumors; 1 h postinjection): 3.50 ± 0.95 % ID/g
liver (B16F10 melanoma tumors; 1 h postinjection): 10.28 ± 2.9 % ID/g
lung (B16F10 melanoma tumors; 1 h postinjection): 1.29 ± 0.36 % ID/g
melanoma (tumor uptake) (B16F10 melanoma tumors; 1 h postinjection): 8.52 ± 0.08 % ID/g
muscle (B16F10 melanoma tumors; 1 h postinjection): 0.36 ± 0.06 % ID/g
spleen (B16F10 melanoma tumors; 1 h postinjection): 0.90 ± 0.22 % ID/g
melanoma (tumor uptake) (B16F10 melanoma tumors; 1 h postinjection, listed as 99mTc-Z2): 8.52 % ID/g
mel/blood (B16F10 melanoma tumors; 1 h postinjection): 16.49 ± 6.7
mel/liver (B16F10 melanoma tumors; 1 h postinjection): 0.64 ± 0.21
mel/lung (B16F10 melanoma tumors; 1 h postinjection): 4.93 ± 1.13
mel/spleen (B16F10 melanoma tumors; 1 h postinjection): 7.94 ± 2.79
Eyes (B16F10 melanoma tumors; 3 h postinjection): 13.55 ± 2.49 % ID/g
blood (B16F10 melanoma tumors; 3 h postinjection): 0.22 ± 0.02 % ID/g
brain (B16F10 melanoma tumors; 3 h postinjection): 0.06 ± 0.01 % ID/g
heart (B16F10 melanoma tumors; 3 h postinjection): 0.22 ± 0.02 % ID/g
kidney (B16F10 melanoma tumors; 3 h postinjection): 1.64 ± 0.15 % ID/g
liver (B16F10 melanoma tumors; 3 h postinjection): 3.32 ± 0.67 % ID/g
lung (B16F10 melanoma tumors; 3 h postinjection): 0.49 ± 0.03 % ID/g
melanoma (tumor uptake) (B16F10 melanoma tumors; 3 h postinjection): 7.56 ± 1.69 % ID/g
muscle (B16F10 melanoma tumors; 3 h postinjection): 0.11 ± 0.01 % ID/g
spleen (B16F10 melanoma tumors; 3 h postinjection): 0.93 ± 0.78 % ID/g
melanoma (tumor uptake) (B16F10 melanoma tumors; [1]): 7.56 % ID/g
mel/blood (B16F10 melanoma tumors; 3 h postinjection): 34.80 ± 10.2
mel/liver (B16F10 melanoma tumors; 3 h postinjection): 2.29 ± 0.30
mel/liver (B16F10 melanoma tumors; [1]): 2.29
mel/lung (B16F10 melanoma tumors; 3 h postinjection): 15.48 ± 3.91
mel/spleen (B16F10 melanoma tumors; 3 h postinjection): 17.28 ± 10.2
Eyes (B16F10 melanoma tumors; 6 h postinjection): 8.89 ± 1.55 % ID/g
blood (B16F10 melanoma tumors; 6 h postinjection): 0.12 ± 0.02 % ID/g
brain (B16F10 melanoma tumors; 6 h postinjection): 0.03 ± 0.01 % ID/g
heart (B16F10 melanoma tumors; 6 h postinjection): 0.10 ± 0.02 % ID/g
kidney (B16F10 melanoma tumors; 6 h postinjection): 0.84 ± 0.08 % ID/g
liver (B16F10 melanoma tumors; 6 h postinjection): 3.10 ± 0.31 % ID/g
lung (B16F10 melanoma tumors; 6 h postinjection): 0.31 ± 0.03 % ID/g
melanoma (tumor uptake) (B16F10 melanoma tumors; 6 h postinjection): 5.39 ± 0.36 % ID/g
muscle (B16F10 melanoma tumors; 6 h postinjection): 0.04 ± 0.01 % ID/g
spleen (B16F10 melanoma tumors; 6 h postinjection): 1.19 ± 0.6 % ID/g
melanoma (tumor uptake) (B16F10 melanoma tumors; 6 h postinjection, listed as 99mTc-Z2): 3.71 % ID/g
mel/blood (B16F10 melanoma tumors; 6 h postinjection): 43.14 ± 4.9
mel/liver (B16F10 melanoma tumors; 6 h postinjection): 1.71 ± 0.13
mel/lung (B16F10 melanoma tumors; 6 h postinjection): 16.9 ± 1.41
mel/spleen (B16F10 melanoma tumors; 6 h postinjection): 5.10 ± 2.59
tumor retention (in words) (B16F10 melanoma tumors; over time): significant tumor retention
SMILES: O=C1C[S][99Tc-]23(=[O])[S]CC[N+]2(CCN2CCCCC2)CC[N]13 (centres unmarked) [Tc-Z2]
